Columns and labels:
[1] = test system: human monocytes and dendritic cells; assay: in vitro chemotaxis towards chemoattractant-releasing PLGA microspheres; type: cell-based; details: PLGA microspheres releasing the chemoattractant
From the text: FIG. 7A is a schematic representation of the experimental design. […] FIGS. 7C and 7D show the movement of monocyte-derived DCs and monocytes, respectively, towards the vaccination site source well.
PLGA (poly(lactide-co-glycolide)) microspheres provide steady controlled release of encapsulated chemokines. […] Synthetic inverse opal hydrogel scaffolds were synthesized that support T-cell migration and interaction with B cells (FIG. 8A), and support attachment and growth of high cell densities, which is an important feature in mimicking the microenvironment of the lymph node (FIG. 8B).

human monocytes [2] = details: known value used for comparison; cited from earlier work
human monocytes [3] = assay: rapid chemokine testing system (lateral motility / chemotaxis of cells); type: cell-based
Experimental: The BioAssembly Tool (BAT) has been modified for use in observations of the lateral motility of cells in experiments on chemotaxis. The described setup enables rapid screening of chemokines and cell matrices (typically, one experiment can take about half to one hour).
Three chemokines, fMLP-FITC; […], and MIP-3β, were tested with human monocytes. […] MIP-3β was found ineffective (as expected for immature monocytes); MIP-3α was found effective, despite negative information and expectations. […] Thus, fibrin matrices should be used preferably in cases when cell retention is required, and collagen should be used to make cell-permeable barriers. This latter observation may be important when considering the use of ETCs for wound healing procedures. This system can be used to further refine and optimize chemokine doses using various microparticle strategies and formulations, temporal release characteristics, and scaffold characteristics (e.g., geometry, porosity, material) on cell migration.
The rapid chemokine testing system can be used to examine saturation of cell receptors by chemokines. When a chemokine reaches its saturating concentration, cells become insensitive to the signal and stop their locomotion. In most cases, chemotaxis occurs through gradients of chemokines.

monocytes = assay: monocyte attraction to implanted extracellular matrix scaffold; type: in vivo; details: mouse

CSCC[C@H](NC=O)C(=O)N[C@@H](CC(C)C)C(=O)N[C@@H](Cc1ccccc1)C(=O)O [fMLP, N-formyl-methionyl-leucyl-phenylalanine]
movement of cells towards releasing microspheres [1]: move towards microspheres
saturation level known (human monocytes [2]): ~30 nM

MIP-3α: chemokine (macrophage inflammatory protein-3) tested with human monocytes
effectiveness of the chemokine (human monocytes [3]): effective

MIP-3β: macrophage inflammatory protein-3β, a 10 kDa chemoattractant chemokine
effectiveness of the chemokine (human monocytes [3]): ineffective
attraction of monocytes (immunohistochemical staining) (monocytes): attracted

N-formyl-methionyl-leucyl-phenylalanine-fluorescein isothiocyanate [fMLP FITC]
saturation level (human monocytes [3]): ~40 nM

— patent US9625444B2, “Artificial immune system: methods of use” (Sanofi Pasteur VaxDesign Corporation, priority 2004, dated 2017)
